Experimental data published in patent US20210347785A1, “PREPARATION AND APPLICATION OF AROMATIC COMPOUND HAVING IMMUNOREGULATORY FUNCTION” (SHANGHAI ENNOVABIO PHARMACEUTICALS CO., LTD., priority 2018, published 2021).

Molecular target: T1, PD-1/PD-L1 (Homo sapiens, UniProt Q9NZQ7)
T1 construct: purchased Cisbio 63ADK000CPDEC
Assay: PD-1/PD-L1 homogeneous time-resolved fluorescence (HTRF) binding assay
Settings: 665 nm/620 nm ratio
Text: Test Example 1: Detect the Inhibitory Effect of the Compound to the Binding of PD-1/PD-L1 Protein
The PD-1/PD-L1 homogeneous time-resolved fluorescence method is used to detect the binding ability of the compound with PD-L1.
PD-1/PD-L1 binding assay kit (Cisbio, Cat #63ADK000CPDEC) was chosen, which contains two proteins Tag 1-PD-L1 and Tag 2-PD-1, and two antibodies Anti-Tag1-Eu^3+ and Anti-Tag2-XL 665. The principle of detection was: Anti-tag1-Eu^3+ was used as the donor of HTRF, and Anti-Tag2-XL 665 was used as the acceptor of HTRF. When Tag 1-PD-L1 interacts with Tag 2-PD-1, the added HTRF donor and the acceptor are close to each other. After the donor has received the excitation energy, part of the energy was transferred to the acceptor, thus generating 665 nm emission light. […] The inhibitory effect of the compound can be determined by comparing the ratio of 665 nm/620 nm. Tag 1-PD-L1 was diluted with Diluent buffer (cat #62DLBDDF) to a working concentration of 10 nM, Tag 2-PD-1 was diluted with Diluent buffer to a working concentration of 500 nM, Anti-Tag1-Eu^3+ was diluted with detection buffer (cat #62DB1FDG) at a ratio of 1:100, Anti-Tag2-XL 665 was diluted with detection buffer at a ratio of 1:20, and the compound to be detected was diluted with diluent buffer to a final concentration of 2×. Compound solution (2 μL) was added to each well of a 384-well plate, then Tag 1-PD-L1 (4 μL) and Tag 2-PD-1 (4 μL) were added successively. The mixture was incubated at room temperature for 15 minutes. Then Anti-Tag1-Eu^3+ (5 μL) and Anti-Tag2-XL 665 (5 μL) were added, and the mixture was incubated overnight at room temperature. BioTek Synergy™ Neo2 multifunctional microplate reader was used to detect so as to provide the 665 nm/620 nm ratio. PrismGraphd 5.02 was used to fit the IC50 curve.

T1 sequence (Q9NZQ7 19-238 limits assumed): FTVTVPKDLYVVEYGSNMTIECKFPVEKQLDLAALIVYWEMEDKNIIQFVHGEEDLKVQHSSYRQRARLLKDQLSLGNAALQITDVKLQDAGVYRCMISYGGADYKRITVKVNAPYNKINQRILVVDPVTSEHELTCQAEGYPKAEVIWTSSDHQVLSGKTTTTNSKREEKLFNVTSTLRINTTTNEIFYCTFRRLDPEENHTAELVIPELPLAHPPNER

`COc1nc(-c2cccc(-c3cccc(Nc4nccc5sc(CNCc6nn[nH]n6)nc45)c3Cl)c2Cl)ccc1CN1CC2(CCC(=O)N2)C1` [Compound 39] and `COc1nc(-c2cccc(-c3cccc(Nc4nccc5sc(CNCC(=O)O)nc45)c3Cl)c2Cl)cc(C)c1CN1CC2(CCC(=O)N2)C1` [Compound 30] cannot be ordered by IC50: under 100 nM for the first, under 100 nM for the second.

`COc1nc(-c2cccc(-c3cccc(Nc4nccc5sc(CN6CC[C@@H](C(=O)O)C6)nc45)c3Cl)c2Cl)cc(C)c1CNC[C@@H]1CCC(=O)N1` [Compound 45] and `COc1cc(-c2cccc(-c3cccc(Nc4nccc5sc(CN6CCC(C(=O)O)CC6)nc45)c3Cl)c2Cl)cc(C)c1CNC[C@@H]1CCC(=O)N1` [Compound 55] cannot be ordered by IC50: under 100 nM for the first, under 100 nM for the second.

First: OCCNCc1nc2c(Nc3cccc(-c4ccccc4)c3Cl)nccc2s1 [Compound 5, 2-(((4-((2-Chloro-[1,1′-biphenyl]-3-yl)amino)thiazolo[4,5-c]pyridin-2-yl)methyl)amino)ethane-1-ol]
Second: O[C@@H]1CCN(Cc2nc3c(Nc4cccc(-c5ccccc5)c4Cl)nccc3s2)C1 [Compound 6, (R)-1-((4-((2-Chloro-[1,1′-biphenyl]-3-yl)amino)thiazolo[4,5-c]pyridin-2-yl)methyl)pyrrolidin-3-ol]
The IC50 of the first is lower: under 100 nM for the first, 100 to 1000 nM for the second.

`COc1nc(-c2cccc(-c3cccc(Nc4nccc5sc(CNCC(=O)OCc6oc(=O)oc6C)nc45)c3Cl)c2Cl)ccc1CNC[C@@H]1CCC(=O)N1` [Compound 19, (5-methyl-2-carbonyl-1,3-dioxazole-4-yl) methyl (S)-((4-((2,2′-dichloro-3′-(6-methoxy-5-((5-carbonylpyrrolidin-2-yl)methyl)pyridine-2-yl)-[1,1′-biphenyl]-3-yl)amino)thiazolo [4,5-c]pyridine-2-yl)methyl) glycine] and `COc1nc(-c2cccc(-c3cccc(Nc4nccc5sc(CNCC(=O)O)nc45)c3Cl)c2Cl)c(Cl)cc1CNC[C@@H]1CCC(=O)N1` [Compound 28] cannot be ordered by IC50: under 100 nM for the first, under 100 nM for the second.

`CN(CCCO)CCCOc1cccc(-c2cccc(Nc3nccc4sc(CNCC(=O)O)nc34)c2Cl)c1` [Compound 14, ((4-((2-chloro-3′-(3-((3-hydroxypropyl)(methyl)amino)propoxy)-[1,1′-biphenyl]-3-yl)amino)thiazolo[4,5-c]pyridin-2-yl)methyl)glycine] and `Cc1c(OCCCN2CCC(O)C2)cccc1-c1cccc(Nc2nccc3sc(CNCC(=O)O)nc23)c1Cl` (stereo not drawn) [Compound 16, ((4-((2-chloro-3′-(3-(3-hydroxypyrrolidin-1-yl)propoxy)-2′-methyl-[1,1′-biphenyl]-3-yl)amino)thiazolo[4,5-c]pyridin-2-yl)methyl)glycine] cannot be ordered by IC50: under 100 nM for the first, under 100 nM for the second.

`COc1nc(-c2cccc(-c3cccc(Nc4nccc5sc(CNCC(=O)O)nc45)c3Cl)c2Cl)ccc1CN1CCC2(CNC(=O)C2)C1` (stereo not drawn) [Compound 25] and `OCCNCc1nc2c(Nc3cccc(-c4ccc5c(c4)OCCO5)c3Cl)nccc2s1` [Compound 10, 2-(((4-((2-chloro-3-(2,3-dihydrobenzo[b][1,4]dioxin-6-yl)phenyl)amino)thiazolo[4,5-c)pyridin-2-yl)methyl)amino)ethane-1-ol] cannot be ordered by IC50: under 100 nM for the first, under 100 nM for the second.
